Measured values from PubChem BioAssay (NCI).
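The concentration for 50% growth inhibition is given as GI50. At the TGI there is no net growth.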

How the values were obtained:
Assay in all cases: growth of human tumour cells (NCI), 384-well format
[1] = system: 786-0 renal
[2] = system: A498 renal
[3] = system: A549 NSCLC
[4] = system: BT-549 breast
[5] = system: CAKI-1 renal
[6] = system: CCRF-CEM leukemia
[7] = system: COLO 205 colon
[8] = system: DU-145 prostate
[9] = system: EKVX NSCLC
[10] = system: HCC-2998 colon
[11] = system: HL-60(TB) leukemia
[12] = system: HOP-62 NSCLC
[13] = system: HOP-92 NSCLC
[14] = system: HS 578T breast
[15] = system: HT29 colon
[16] = system: IGROV1 ovarian
[17] = system: KM12 colon
[18] = system: LOX IMVI melanoma
[19] = system: M14 melanoma
[20] = system: MALME-3M melanoma
[21] = system: MCF7 breast
[22] = system: MDA-MB-231 breast
[23] = system: MDA-MB-435 melanoma
[24] = system: MDA-MB-468 breast
[25] = system: MOLT-4 leukemia
[26] = system: NCI-H226 lung
[27] = system: NCI-H23 lung
[28] = system: NCI-H460 NSCLC
[29] = system: NCI-H522 lung
[30] = system: NCI/ADR-RES ovarian
[31] = system: OVCAR-4 ovarian
[32] = system: OVCAR-5 ovarian
[33] = system: OVCAR-8 ovarian
[34] = system: PC-3 prostate
[35] = system: RPMI-8226 leukemia
[36] = system: RXF 393 renal
[37] = system: SF-268 CNS
[38] = system: SF-295 CNS
[39] = system: SF-539 CNS
[40] = system: SK-MEL-28 melanoma
[41] = system: SK-MEL-5 melanoma
[42] = system: SK-OV-3 ovarian
[43] = system: SN12C renal
[44] = system: SNB-19 CNS
[45] = system: SNB-75 CNS
[46] = system: SR leukemia
[47] = system: SW-620 colon
[48] = system: T-47D breast
[49] = system: TK-10 renal
[50] = system: UACC-257 melanoma
[51] = system: UO-31 renal

For `N[C@@H]1CCCN(c2c(Br)cnc3[nH]cc(NC(=O)C4CC4)c23)C1`, the GI50 [1] was 26.8 nM, the TGI [1] was 78.9 nM and the GI50 [2] was 12 nM. The TGI [2] was 31.2 nM, the GI50 [3] was 303 nM and the TGI [3] was > 100000 nM. For the same compound, the GI50 [4] was 18.6 nM, the TGI [4] was 42.7 nM and the GI50 [5] was 361 nM. It also gave a TGI [5] of 14200 nM, a GI50 [6] of 19 nM and a TGI [6] of 37.5 nM. It also gave a GI50 [7] of 269 nM, a TGI [7] of 2690 nM and a GI50 [8] of 172 nM. For the same compound, the TGI [8] was > 100000 nM, the GI50 [9] was 184 nM and the TGI [9] was > 100000 nM. For the same compound, the GI50 [10] was 15.3 nM, the TGI [10] was 45.5 nM and the GI50 [11] was 18 nM. For the same compound, the TGI [11] was 35.4 nM, the GI50 [12] was 36.5 nM and the TGI [12] was 202 nM. For the same compound, the GI50 [13] was 19.2 nM, the TGI [13] was 57.7 nM and the GI50 [14] was 14.3 nM. It also gave a TGI [14] of 41 nM, a GI50 [15] of 197 nM and a TGI [15] of 524 nM. The GI50 [16] was 61.1 nM, the TGI [16] was > 100000 nM and the GI50 [17] was 57.4 nM. For the same compound, the TGI [17] was > 100000 nM, the GI50 [18] was 276 nM and the TGI [18] was 1870 nM. The GI50 [19] was 19.1 nM, the TGI [19] was 41.7 nM and the GI50 [20] was 23.4 nM. The TGI [20] was 219 nM, the GI50 [21] was 25.1 nM and the TGI [21] was > 100000 nM. The GI50 [22] was 318 nM, the TGI [22] was 18300 nM and the GI50 [23] was 30.5 nM. For the same compound, the TGI [23] was 124 nM, the GI50 [24] was 20 nM and the TGI [24] was 76 nM. For the same compound, the GI50 [25] was 14.1 nM, the TGI [25] was 27.8 nM and the GI50 [26] was 7470 nM. For the same compound, the TGI [26] was 56100 nM, the GI50 [27] was 21 nM and the TGI [27] was 69.5 nM. It also gave a GI50 [28] of 118 nM, a TGI [28] of 1500 nM and a GI50 [29] of 1510 nM. For the same compound, the TGI [29] was 9610 nM, the GI50 [30] was 51.7 nM and the TGI [30] was 197 nM. It also gave a GI50 [31] of 17.7 nM, a TGI [31] of 44.8 nM and a GI50 [32] of 79.4 nM. It also gave a TGI [32] of 433 nM, a GI50 [33] of 28.7 nM and a TGI [33] of 112 nM. It also gave a GI50 [34] of 11800 nM, a TGI [34] of 65600 nM and a GI50 [35] of 18.7 nM. It also gave a TGI [35] of 97.9 nM, a GI50 [36] of 20.7 nM and a TGI [36] of 45.5 nM. For the same compound, the GI50 [37] was 241 nM, the TGI [37] was > 100000 nM and the GI50 [38] was 23.5 nM. The TGI [38] was 68.8 nM, the GI50 [39] was 17.4 nM and the TGI [39] was 35.8 nM. The GI50 [40] was 244 nM, the TGI [40] was > 100000 nM and the GI50 [41] was 27.7 nM. The TGI [41] was 128 nM, the GI50 [42] was 34.2 nM and the TGI [42] was 162 nM. For the same compound, the GI50 [43] was 450 nM, the TGI [43] was 4270 nM and the GI50 [44] was 220 nM. For the same compound, the TGI [44] was > 100000 nM, the GI50 [45] was 262 nM and the TGI [45] was 4580 nM. The GI50 [46] was 15.1 nM, the TGI [46] was 29.4 nM and the GI50 [47] was 379 nM. The TGI [47] was 36400 nM, the GI50 [48] was > 100000 nM and the TGI [48] was > 100000 nM. For the same compound, the GI50 [49] was 24.2 nM, the TGI [49] was 64.7 nM and the GI50 [50] was 368 nM. For the same compound, the TGI [50] was > 100000 nM, the GI50 [51] was 52.7 nM and the TGI [51] was > 100000 nM.
